Patent publication US7034000B2, “Peptides derived from the human amyloid precursor protein” (The Brigham and Women's Hospital, Inc., priority 2000, dated 2006)
Blank lines part the entries; values can stand above or below the molecule they belong to.

Assay: ferrozine based iron oxidation (ferroxidase) assay
Assay type: biochemical
Conditions: for Vmax, rate of iron oxidation: another set of ferrozine-based assays, 0.5 μM each; for Vmax of iron oxidation: first set, 6.5 nM of protein; for ferroxidase activity when synthesized as a distinct peptide: statement in summary, no values
Method: Computer-based alignments of APP and H-ferritin were run using the Gap and Bestfit sequence alignment programs for Vax software. […] Bovine serum albumin (BSA) served as a negative control for these experiments since 6.5 μM BSA provided a 5-fold lower apparent rate of iron oxidation (an apparent reaction rate of 0.1 μM iron oxidized per minute). It was concluded that purified, secreted APP ectodomain specifically catalyzes the oxidation of 100-fold more iron per minute than the amount of APP present. This is an indication that APP harbors one or more sites for catalytic iron oxidation.
Using synthetic peptides, it was confirmed that sequences overlapping the newly identified FOX-1 domain in APP function as intrinsic ferroxidases. A peptide designated as “A2” (coding for residues 316 to 337 in APP-695)was tested. […] Ceruloplasmin (Cp) was used as a positive control since Cp is a known copper-dependent iron oxidase. […] The standard error for each of these reactions was less than 5%.
The known RERMS domain of APP (319 to 335 with respect to APP-695) is a cytoprotective region of APP and overlaps the A2 to peptide described above. […] The 827 sequence is HRBRMSQVMREWEEAERQAKNL (SEQ ID NO: 6), encoding 9 amino terminal amino acids that overlap with the RERMS peptide. In addition, 827 has 13 unique amino acids that align with the ferritin iron oxidase domain, as present in FOX-1. […] It was concluded that peptides spanning sequences from 316 to 346 of APP-695 can be used as agents to protect cells from iron catalyzed cellular damage.

- rate of iron oxidation compared with BSA or RNase-A (0.5 μM): significantly higher
- Vmax, rate of iron oxidation: 2.78 µM/min
- iron oxidase activity Vmax (second set, 0.5 μM peptide): 2.96 μM/min/0.5 μM peptide
Molecule: A2 peptide: synthetic peptide coding for residues 316 to 337 in APP-695, overlaps RERMS domain (CAPFFYGGCGGNRNNFDTEEYC; APP695; UniProt P05067 316-337, looked up, fragment)

- iron oxidized per minute relative to the amount of APP present (purified, secreted APP ectodomain): 100 fold
Molecule: APP: purified, secreted human amyloid precursor protein ectodomain
- Vmax of iron oxidation: 0.5 µM/min

- ferroxidase activity when synthesized as a distinct peptide: has ferroxidase activity
Molecule: DGDEVEEEAEPYEEATERTTSIA (listed as Homo sapiens) [FOX-2, peptide corresponding to the complete FOX-2 domain, between amino acids 250 and 273 in APP-695]

- Vmax, rate of iron oxidation: 7.36 µM/min
Molecule: HRERMSQVMREWEEAERQAKNL (listed as Homo sapiens) [827 peptide, first 13 N-terminal amino acids of FOX-1 fused to nine amino acids from the RERMS domain of APP-695 (327–348)]

- ferroxidase activity when synthesized as a distinct peptide: has ferroxidase activity
Molecule: REWEEAERQAKNLPKADKKAVIQH (listed as Homo sapiens) [FOX-1]

B1: RNaseTI: control protein in the second set of ferrozine-based assays (protein, UniProt P00651 27-130, looked up)
Guanyl-specific ribonuclease …: ACDYTCGSNCYSSSDVSTAQAAGYQLHEDGETVGSNSYPHKYNNYEGFDFSVSSPYYEWPILSSGDVYSGGSPGADRVVFNENNQLAGVITHTGASGNNFVECT
- Vmax, rate of iron oxidation: 1.05 µM/min

B2: Ceruloplasmin: known copper-dependent iron oxidase (ferroxidase), positive control (protein, UniProt P00450 20-1065, looked up)
Ceruloplasmin: KEKHYYIGIIETTWDYASDHGEKKLISVDTEHSNIYLQNGPDRIGRLYKKALYLQYTDETFRTTIEKPVWLGFLGPIIKAETGDKVYVHLKNLASRPYTFHSHGITYYKEHEGAIYPDNTTDFQRADDKVYPGEQYTYMLLATEEQSPGEGDGNCVTRIYHSHIDAPKDIASGLIGPLIICKKDSLDKEKEKHIDREFVVMFSVVDENFSWYLEDNIKTYCSEPEKVDKDNEDFQESNRMYSVNGYTFGSLPGLSMCAEDRVKWYLFGMGNEVDVHAAFFHGQALTNKNYRIDTINLFPATLFDAYMVAQNPGEWMLSCQNLNHLKAGLQAFFQVQECNKSSSKDNIRGKHVRHYYIAAEEIIWNYAPSGIDIFTKENLTAPGSDSAVFFEQGTTRIGGSYKKLVYREYTDASFTNRKERGPEEEHLGILGPVIWAEVGDTIRVTFHNKGAYPLSIEPIGVRFNKNNEGTYYSPNYNPQSRSVPPSASHVAPTETFTYEWTVPKEVGPTNADPVCLAKMYYSAVEPTKDIFTGLIGPMKICKKGSLHANGRQKDVDKEFYLFPTVFDENESLLLEDNIRMFTTAPDQVDKEDEDFQESNKMHSMNGFMYGNQPGLTMCKGDSVVWYLFSAGNEADVHGIYFSGNTYLWRGERRDTANLFPQTSLTLHMWPDTEGTFNVECLTTDHYTGGMKQKYTVNQCRRQSEDSTFYLGERTYYIAAVEVEWDYSPQREWEKELHHLQEQNVSNAFLDKGEFYIGSKYKKVVYRQYTDSTFRVPVERKAEEEHLGILGPQLHADVGDKVKIIFKNMATRPYSIHAHGVQTESSTVTPTLPGETLTYVWKIPERSGAGTEDSACIPWAYYSTVDQVKDLYSGLIGPLIVCRRPYLKVFNPRRKLEFALLFLVFDENESWYLDDNIKTYSDHPEKVNKDDEEFIESNKMHAINGRMFGNLQGLTMHVGDEVNWYLMGMGNEIDLHTVHFHGHSFQYKHRGVYSSDVFDIFPGTYQTLEMFPRTPGIWLLHCHVTDHIHAGMETTYTVLQNEDTKSG
- Vmax, rate of iron oxidation: 6.41 µM/min
- Vmax of iron oxidation: 5 µM/min
- reaction velocity (Vmax) (second set, 0.5 μM protein, n=6, positive control): 4.2 µM iron/min/0.5 µM protein

B3: RNase-A: negative control protein (protein, UniProt P61823 27-150, looked up)
Ribonuclease pancreatic: KETAAAKFERQHMDSSTSAASSSNYCNQMMKSRNLTKDRCKPVNTFVHESLADVQAVCSQKNVACKNGQTNCYQSYSTMSITDCRETGSSKYPNCAYKTTQANKHIIVACEGNPYVPVHFDASV
- apparent Vmax (second set, 0.5 μM, n=6, negative control): 1.96 µM iron/min/0.5 µM peptide
